Source: ChEMBL document CHEMBL4433231 (Bioorg Med Chem Lett, 2019)

target: Vitamin K epoxide reductase complex subunit 1 (Homo sapiens, UniProt Q9BQB6); assay: Inhibition of VKOR (unknown origin) in HEK293 expressing FIXgla-PC incubated for 48 hrs by ELISA; assay type: cell-based
Sequence (Q9BQB6 whole entry, one chain of several): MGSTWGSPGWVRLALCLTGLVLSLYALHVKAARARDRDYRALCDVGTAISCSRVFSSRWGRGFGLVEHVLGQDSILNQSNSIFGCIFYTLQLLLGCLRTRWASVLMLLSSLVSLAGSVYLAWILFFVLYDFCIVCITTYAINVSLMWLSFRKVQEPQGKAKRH

Structure (SMILES)	IC50 [nM]
CC(=O)CC(C1=C/C=C(C(=O)O)\C=C/C=C\1)c1c(O)c2ccccc2oc1=O (racemic)	1930
CC1(O)CC(C2=C/C=C\C=C/C=C\2)c2c(c3ccccc3oc2=O)O1 (racemic)	4.5
CC(=O)CC(c1c(O)c2ccccc2oc1=O)C1CCCCCCC1 (racemic)	59
CC(=O)CC(c1c(O)c2ccccc2oc1=O)C1CCCCC1 (racemic)	90.2
C[C@]1(O)C[C@H](C2=C/C=C\C=C/C=C\2)[C@]2(COc3ccccc3C2=O)n2c(=O)n(-c3ccccc3)c(=O)n21	58.2
